Assay results published in patent US9388419B2 (The Regents of the University of Colorado, a body corporate, priority 2009, dated 2016).
Read-outs that look alike come from different tables or passages of the source.

Assays:
E. coli Mach1-T1 = experiment: Minimum inhibitory concentration (MIC) of 3-HP, microaerobic, 96 well-plate, MOPS minimal media; type: cell-based, Escherichia coli; details: E. coli Mach1-T1, MOPS minimal media with the supplement at its optimal concentration vs unsupplemented, microaerobic, 24 hours
Method: Overnight cultures of strains were grown in 5 ml LB (with antibiotic where appropriate). A 1 v/v % was used to inoculate a 15 ml conical tube filled to the top with MOPS minimal media and capped. After the cells reached mid exponential phase, the culture was diluted to an OD600 of 0.200. The cells were further diluted 1:20 and a 10 ul aliquot was used to inoculate each well (˜10^4 cells per well).
The minimum inhibitory concentration (MIC) was determined microaerobically in a 96 well-plate format. Overnight cultures of strains were grown in 5 mL LB (with antibiotic where appropriate). A 1% (v/v) inoculum was introduced into a 15 ml culture of MOPS minimal media. After the cells reached mid-exponential phase, the culture was diluted to an OD600 of 0.200. The cells were further diluted 1:20 and a 10 μL aliquot was used to inoculate each well of a 96 well plate (˜10^4 cells per well).

[1] = tested on: Yeast strains (S288C background); type: cell-based, Saccharomyces cerevisiae; details: aerobic; for Average MIC Assay Result (g/L 3-HP): MIC of 3-HP for yeast S288C in SD media with the named supplement(s); for % Increase Over Control: increase of 3-HP MIC over S288C in SD without supplement
Method: The minimum inhibitory concentration (MIC) was determined aerobically in a 96 well-plate format. […] Media supplements were added according to levels reported in the Supplements Table, where specified. Overnight cultures of strains were grown in triplicate in 5 mL SD media with vitamins (Methods in Enzymology vol. 350, page 17 (2002)). A 1% (v/v) inoculum was introduced into a 5 ml culture of SD minimal media without vitamins. After the cells reached mid-exponential phase, the culture was diluted to an OD600 of 0.200. The cells were further diluted 1:5 and a 10 μL aliquot was used to inoculate each well of a 96 well plate (˜10^4 cells per well) to total volume of 100 uL. […] Plates were incubated for 72 hours at 30 C.

[2] = tested on: Yeast strains (S288C background); type: cell-based, Saccharomyces cerevisiae; details: anaerobic; for Average MIC Assay Result (g/L 3-HP): MIC of 3-HP for yeast S288C in SD media with the named supplement(s); for % Increase Over Control: increase of 3-HP MIC over S288C in SD without supplement
Method: The minimum inhibitory concentration (MIC) was determined anaerobically in a 96 well-plate format. […] A 1% (v/v) inoculum was introduced into a 5 ml culture of SD minimal media without vitamins. After the cells reached mid-exponential phase, the culture was diluted to an OD600 of 0.200. The cells were further diluted 1:5 and a 10 μL aliquot was used to inoculate each well of a 96 well plate (˜10^4 cells per well) to total volume of 100 uL. […] Plates were incubated for 72 hours at 30 C. […] Plates were sealed in biobag anaerobic chambers that contained gas generators for anaerobic conditions and incubated for 72 hours at 30 C.

E. coli [3] = type: cell-based, Escherichia coli; details: strain BW25113, M9 media with the named supplement(s), aerobic; MIC of 3-HP versus M9 control without supplement
Method: (§1) For MIC evaluations, the final results are expressed in chemical agent concentrations determined by analysis of the stock solution by HPLC (i.e., see Subsection Mb).
The minimum inhibitory concentration (MIC) was determined aerobically in a 96 well-plate format. […] Media supplements were added according to levels reported in the Supplements Table, where specified. Overnight cultures of strains were grown in triplicate in 5 mL LB (with antibiotic where appropriate). A 1% (v/v) inoculum was introduced into a 5 ml culture of M9 minimal media.

B. subtilis = experiment: MIC protocol B. subtilis aerobic (Common Methods, M9 media + glutamate, 24 hours); type: cell-based, Bacillus subtilis; details: for Avg 24 hr ΔOD600: B. subtilis 168 in M9 + glu + trp with the named supplement(s), 3HP tolerance; for % Increase Over Control: increase of 24 hr ΔOD600 over B. subtilis 168 without supplement
Method: as §1
The minimum inhibitory concentration (MIC) was determined aerobically in a 96 well-plate format. […] Media supplements were added according to levels reported in the Supplements Table where specified. Overnight cultures of strains were grown in triplicate in 5 mL LB (with antibiotic where appropriate). A 1% (v/v) inoculum was introduced into a 5 ml culture of M9 minimal media+glutamate.

E. coli [4] = type: cell-based, Escherichia coli; details: anaerobic; for % Increase Over Control: increase of 3-HP MIC over BW25113 in M9 without supplement; for MIC Assay Result (g/L 3-HP): MIC of 3-HP for E. coli BW25113 in M9 media with the named supplement(s), 24-hour
Method: as §1
The minimum inhibitory concentration (MIC) was determined anaerobically in a 96 well-plate format. […] Media supplements were added according to levels reported in the Supplements Table, where specified. Overnight cultures of strains were grown in triplicate in 5 mL LB (with antibiotic where appropriate). A 1% (v/v) inoculum was introduced into a 5 ml culture of M9 minimal media.

strain BX3_0194 = experiment: 3-HP production by BX3_0194 at 100-mL scale in SM3 medium, without or with 10 μg/ml cerulenin; type: cell-based, E. coli
Method: Cultures were started from freezer stocks by standard practice (Sambrook and Russell, 2001) into 50 mL of LB media plus 100 μg/mL ampicillin and grown to stationary phase overnight at 37° C. with rotation at 225 rpm. Five ml of this culture were transferred to 100 ml of SM3 media plus 40 g/L glucose, 100 μg/ml ampicillin, and 1 mM IPTG in triplicate 250-ml baffled flasks and incubated at 37° C., 225 rpm. […] Dry cell weight (DCW) is calculated as 0.33 times the measured OD600 value, based on baseline DCW to OD600 determinations. All data are the average of triplicate cultures.

E. coli K12 = type: cell-based, Escherichia coli; details: E. coli K12, M9 minimal media supplemented with the substance (polyamines 0.1 g/L, sodium bicarbonate 20 mM), aerobic, 24 hours
Method: Overnight cultures of strains were grown in 5 ml LB (with antibiotic where appropriate) at 37° C. in a shaking incubator. A 1 v/v % was used to inoculate 10 mL of M9 minimal media. After the cells reached mid-exponential phase, the culture was diluted to an OD600 of 0.200. The cells were further diluted 1:20 and a 10 ul aliquot was used to inoculate each well (˜10^4 cells per well). […] The MIC endpoint is the lowest concentration of compound at which there was no visible growth.

In the case of O=C(O)c1cccc(O)c1O [2,3-didyroxybenzoic acid, 2,3-dihydroxybenzoic acid], the “MIC increase (3-HP) resulting from supplementation” value (“MIC increase (3-HP) resulting” for short) (E. coli Mach1-T1) is reported as 33%.
In the case of CCC(=O)C(=O)O [2-oxobutyrate (B)], the “Average MIC Assay Result (g/L 3-HP)” value [1] is reported as 50 g/L, the “% Increase Over Control” value [1] is reported as 11% and the “Average MIC Assay Result (g/L 3-HP)” value [2] is reported as 38 g/L. The “% Increase Over Control” value [2] was 2%.
In the case of N[C@@H](CC(=O)O)C(=O)O [Aspartate], the “% Increase Over Control” value [1] is reported as 26%.
For O=C(O)O [Bicarbonate (C)], the “% Increase Over Control” value (E. coli [3]) was 59%, the “Average MIC Assay Result (g/L 3-HP)” value [2] was 90 g/L and the “% Increase Over Control” value [2] was 140%.
For NCCCCCN [Cadaverine (C)], the “% Increase Over Control” value [2] was 60%.
For O=C(O)CC(O)(CC(=O)O)C(=O)O [Citrate], the “Avg 24 hr ΔOD600” value (B. subtilis) was 0.30.
With NC(=O)NCCC[C@H](N)C(=O)O [Citrulline (C)] the “% Increase Over Control” value (E. coli [3]) was 9%, the “Average MIC Assay Result (g/L 3-HP)” value [1] was 58 g/L and the “% Increase Over Control” value [1] was 28%. For the same compound, the “Average MIC Assay Result (g/L 3-HP)” value [2] was 97 g/L.
In the case of NC(=O)CC[C@H](N)C(=O)O [Glutamine(C)], the “% Increase Over Control” value (E. coli [3]) is reported as 9%.
NCC(=O)O [Glycine (B)] was tested, and the “Average MIC Assay Result (g/L 3-HP)” value [1] was 50 g/L, the “% Increase Over Control” value [1] was 11% and the “Average MIC Assay Result (g/L 3-HP)” value [2] was 60 g/L. For the same compound, the “% Increase Over Control” value [2] was 60%.
NC(CCS)C(=O)O (stereo not drawn) [Homocysteine (B)] was tested, and the “% Increase Over Control” value (E. coli [3]) was 9%, the “Average MIC Assay Result (g/L 3-HP)” value [2] was 40 g/L and the “% Increase Over Control” value [2] was 7%.
CC[C@H](C)[C@H](N)C(=O)O [Isoleucine (B)] was tested, and the “% Increase Over Control” value (E. coli [3]) was 17%, the “Average MIC Assay Result (g/L 3-HP)” value [2] was 38 g/L and the “% Increase Over Control” value [2] was 2%.
For NCCCC[C@H](N)C(=O)O [Lysine (D)], the “% Increase Over Control” value (E. coli [4]) was 39%, the “% Increase Over Control” value (E. coli [3]) was 33% and the “Average MIC Assay Result (g/L 3-HP)” value [2] was 45 g/L. For the same compound, the “% Increase Over Control” value [2] was 20%.
CSCC[C@H](N)C(=O)O [Methionine] was tested, and the “Avg 24 hr ΔOD600” value (B. subtilis) was 0.15.
With NCCC[C@H](N)C(=O)O [Ornithine(C)] the “% Increase Over Control” value (E. coli [3]) was 9%.
N[C@@H](Cc1ccccc1)C(=O)O [Phenylalanine (A)] was tested, and the “% Increase Over Control” value (E. coli [3]) was 17% and the “% Increase Over Control” value [2] was 2%.
With N[C@@H](CO)C(=O)O [Serine (B)] the “% Increase Over Control” value (E. coli [4]) was 7%, the “% Increase Over Control” value (E. coli [3]) was 17% and the “Average MIC Assay Result (g/L 3-HP)” value [2] was 45 g/L. For the same compound, the “% Increase Over Control” value [2] was 20%.
In the case of O=C(O)C1=C[C@@H](O)[C@@H](O)[C@H](O)C1 [Shikimate (A)], the “% Increase Over Control” value (E. coli [3]) is reported as 3%, the “Average MIC Assay Result (g/L 3-HP)” value [1] is reported as 80 g/L and the “% Increase Over Control” value [1] is reported as 78%. For the same compound, the “Average MIC Assay Result (g/L 3-HP)” value [2] was 60 g/L and the “% Increase Over Control” value [2] was 60%.
NCCCCNCCCN [Spermidine (C)] was tested, and the “% Increase Over Control” value [2] was 60%.
In the case of Nc1nc(=O)c2c([nH]1)NC[C@@H](CNc1ccc(C(=O)N[C@@H](CCC(=O)O)C(=O)O)cc1)N2 [Tetrahydrofolate (A)], the “MIC Assay Result (g/L 3-HP)” value (E. coli [4]) is reported as 40.0 g/L, the “% Increase Over Control” value (E. coli [4]) is reported as 33% and the “% Increase Over Control” value (E. coli [3]) is reported as 9%.
C[C@@H](O)[C@H](N)C(=O)O [Threonine (B)] was tested, and the “% Increase Over Control” value [2] was 2%.
N[C@@H](Cc1c[nH]c2ccccc12)C(=O)O [Tryptophan (A)] was tested, and the “% Increase Over Control” value [1] was 20% and the “% Increase Over Control” value [2] was 47%.
Work on C/C=C/C/C=C/CCC(=O)[C@H]1O[C@H]1C(N)=O [cerulenin] yielded a 3HP (strain BX3_0194; 4 hr) of 0.003 g/L, a 3HP (strain BX3_0194; 6 hr) of 0.14 g/L and a 3HP (strain BX3_0194; 8 hr) of 0.43 g/L. For the same compound, the 3HP (strain BX3_0194; 24 hr) was 1.43 g/L.
For Cl.NC1CCSC1=O (stereo not drawn) [homocysteine thiolactone hydrochloride], the “MIC increase (3-HP) resulting” value (E. coli Mach1-T1) was 60%.
In the case of N[C@@H](CCO)C(=O)O [homoserine], the “MIC increase (3-HP) resulting” value (E. coli Mach1-T1) is reported as 33%.
With CCC(=O)C(=O)O [oxobutanoate] the “MIC increase (3-HP) resulting” value (E. coli Mach1-T1) was 7%.
For Nc1ccc(C(=O)O)cc1 [p-aminobenzoate (A)], the “MIC Assay Result (g/L 3-HP)” value (E. coli [4]) was 40.0 g/L, the “% Increase Over Control” value (E. coli [4]) was 33% and the “% Increase Over Control” value (E. coli [3]) was 27%.
With Nc1ccc(C(=O)O)cc1 [p-aminobenzoic acid] the “MIC increase (3-HP) resulting” value (E. coli Mach1-T1) was 7%, the “Avg 24 hr ΔOD600” value (B. subtilis) was 0.07 and the “% Increase Over Control” value (B. subtilis) was 89%.
For NNC(=O)c1ccc(O)cc1 [p-hydroxybenzoic acid hydrazide], the “MIC increase (3-HP) resulting” value (E. coli Mach1-T1) was 33%.
For N[C@@H](Cc1ccccc1)C(=O)O [phenylalanine], the “MIC increase (3-HP) resulting” value (E. coli Mach1-T1) was 33%.
In the case of Cc1ncc(CO)c(CO)c1O.Cl [pyridoxine hydrochloride], the “MIC increase (3-HP) resulting” value (E. coli Mach1-T1) is reported as 0%.
With O=C([O-])O.[Na+] [sodium bicarbonate] the “Minimum inhibitory concentration (MIC) of 3-HP in supplemented media” value (E. coli K12) was 30 mg/mL, the “Avg 24 hr ΔOD600” value (B. subtilis) was 0.06 and the “% Increase Over Control” value (B. subtilis) was 56%.
For C[C@@H](O)[C@H](N)C(=O)O [threonine], the “MIC increase (3-HP) resulting” value (E. coli Mach1-T1) was 3%.
With N[C@@H](Cc1c[nH]c2ccccc12)C(=O)O [tryptophan] the “MIC increase (3-HP) resulting” value (E. coli Mach1-T1) was 33%.
In the case of N[C@@H](Cc1ccc(O)cc1)C(=O)O [tyrosine], the “MIC increase (3-HP) resulting” value (E. coli Mach1-T1) is reported as 40%.
